Test results from ChEMBL document CHEMBL4261621, “Synthesis of enamino-2-oxindoles via conjugate addition between α-azido ketones and 3-alkenyl oxindoles: Cytotoxicity evaluation and apoptosis inducing studies” (Bioorg Med Chem Lett, 2018).
The source made the active and inactive calls. No cut-off for these calls is given here.

Experiments:
[1] = test system: NCI-H460; experiment: Cell cycle arrest in human NCI-H460 cells assessed as accumulation at S phase at 2.5 uM after 24 hrs by propidium iodide staining based flow cytometry (reference value: 9.93%); format: functional
[2] = test system: NCI-H460; experiment: Induction of apoptosis in human NCI-H460 cells assessed as increase in early apoptotic cells after 72 hrs by Annexin V-alexa fluor 488/propidium iodide staining based flow cytometry; format: functional, cell-based
[3] = test system: NCI-H460; experiment: Cell cycle arrest in human NCI-H460 cells assessed as accumulation at G2/M phase at 1 uM after 24 hrs by propidium iodide staining based flow cytometry (reference value: 35.49%); format: functional
[4] = test system: HCT-116; experiment: Cytotoxicity against human HCT116 cells at 30 uM after 48 hrs by MTT assay relative to control; format: functional
[5] = test system: NCI-H460; experiment: Induction of apoptosis in human NCI-H460 cells assessed as reduction in cell number at 0.25 to 10 uM after 72 hrs by acridine orange/ethidium bromide staining based fluorescence microscopic analysis; format: functional
[6] = test system: NCI-H460; experiment: Induction of apoptosis in human NCI-H460 cells assessed as early apoptotic cells at 5 uM after 72 hrs by Annexin V-alexa fluor 488/propidium iodide staining based flow cytometry (reference value: 0.77%); format: functional
[7] = test system: HeLa; experiment: Cytotoxicity against human HeLa cells after 72 hrs by MTT assay; format: functional, cell-based
[8] = test system: MDA-MB-231; experiment: Cytotoxicity against human MDA-MB-231 cells at 30 uM after 48 hrs by MTT assay relative to control; format: functional
[9] = test system: NCI-H460; experiment: Induction of apoptosis in human NCI-H460 cells assessed as apoptotic body formation at 0.25 to 10 uM after 72 hrs by acridine orange/ethidium bromide staining based fluorescence microscopic analysis; format: functional, cell-based
[10] = test system: NCI-H460; experiment: Cell cycle arrest in human NCI-H460 cells assessed as accumulation at S phase at 5 uM after 24 hrs by propidium iodide staining based flow cytometry (reference value: 9.93%); format: functional
[11] = test system: NCI-H460; experiment: Cell cycle arrest in human NCI-H460 cells assessed as accumulation at sub-G1 phase at 1 uM after 24 hrs by propidium iodide staining based flow cytometry (reference value: 0.99%); format: functional
[12] = test system: NCI-H460; experiment: Cytotoxicity against human NCI-H460 cells assessed as reduction in cell viability after 72 hrs by phase contrast microscopic analysis; format: functional, cell-based
[13] = test system: NCI-H460; experiment: Cell cycle arrest in human NCI-H460 cells assessed as accumulation at G0/G1 phase at 10 uM after 24 hrs by propidium iodide staining based flow cytometry (reference value: 49.6%); format: functional
[14] = test system: NCI-H460; experiment: Induction of apoptosis in human NCI-H460 cells assessed as appearance of condensed nuclei at 0.25 to 10 uM after 72 hrs by DAPI staining based fluorescence microscopic analysis; format: functional, cell-based
[15] = test system: NCI-H460; experiment: Cytotoxicity against human NCI-H460 cells after 72 hrs by MTT assay; format: functional, cell-based; settings: NCI-H460, 72 h
[16] = test system: NCI-H460; experiment: Induction of apoptosis in human NCI-H460 cells assessed as increase in late apoptotic cells after 72 hrs by Annexin V-alexa fluor 488/propidium iodide staining based flow cytometry; format: functional, cell-based
[17] = test system: NCI-H460; experiment: Induction of mitochondrial membrane potential loss in human NCI-H460 cells assessed as increase in depolarized cell population after 72 hrs by JC1 staining based flow cytometry; format: functional
[18] = test system: NCI-H460; experiment: Induction of morphological changes in human NCI-H460 cells assessed as cell shrinkage after 72 hrs by phase contrast microscopic analysis; format: functional, cell-based
[19] = test system: NCI-H460; experiment: Induction of apoptosis in human NCI-H460 cells assessed as viable cells at 1 uM after 72 hrs by Annexin V-alexa fluor 488/propidium iodide staining based flow cytometry (reference value: 98.55%); format: functional; settings: NCI-H460, 72 h, read-out: Activity
[20] = test system: NCI-H460; experiment: Cell cycle arrest in human NCI-H460 cells assessed as accumulation at G2/M phase at 5 uM after 24 hrs by propidium iodide staining based flow cytometry (reference value: 35.49%); format: functional
[21] = test system: NCI-H460; experiment: Induction of reactive oxygen species generation in human NCI-H460 cells after 24 hrs by DCFDA staining based fluorescence microscopic analysis; format: functional, cell-based
[22] = test system: NCI-H460; experiment: Induction of apoptosis in human NCI-H460 cells assessed as early apoptotic cells at 2.5 uM after 72 hrs by Annexin V-alexa fluor 488/propidium iodide staining based flow cytometry (reference value: 0.77%); format: functional
[23] = test system: NCI-H460; experiment: Induction of mitochondrial membrane potential loss in human NCI-H460 cells assessed as depolarized cell population at 5 uM after 72 hrs by JC1 staining based flow cytometry (reference value: 11.63%); format: functional
[24] = test system: NCI-H460; experiment: Induction of apoptosis in human NCI-H460 cells assessed as viable cells at 10 uM after 72 hrs by Annexin V-alexa fluor 488/propidium iodide staining based flow cytometry (reference value: 98.55%); format: functional; settings: NCI-H460, 72 h, read-out: Activity
[25] = test system: NCI-H460; experiment: Cell cycle arrest in human NCI-H460 cells assessed as accumulation at S phase at 10 uM after 24 hrs by propidium iodide staining based flow cytometry (reference value: 9.93%); format: functional
[26] = test system: NCI-H460; experiment: Cell cycle arrest in human NCI-H460 cells assessed as accumulation at G0/G1 phase at 2.5 uM after 24 hrs by propidium iodide staining based flow cytometry (reference value: 49.6%); format: functional
[27] = test system: NCI-H460; experiment: Induction of apoptosis in human NCI-H460 cells assessed as appearance of horse-shoe shaped nuclei at 0.25 to 10 uM after 72 hrs by DAPI staining based fluorescence microscopic analysis; format: functional, cell-based

CCOC(=O)/C(=C(\N)C(=O)c1ccccc1)C1C(=O)N(C)c2ccc(F)cc21 (configuration not stated)
Activity [1]: 64.98% | Activity [2]: Dose-dependent effect | Activity [3]: 61.59% | Activity [4]: >50% | Activity [5]: Active | Activity [6]: 35.42% | IC50 [7]: 2990 nM | Activity [8]: >50% | Activity [9]: Active | Activity [10]: 3.59% | Activity [11]: 9.93% | Activity [12]: Dose-dependent effect | Activity [13]: 9.18% | Activity [14]: Active | IC50 [15]: 1400 nM | Activity [16]: Dose-dependent effect | Activity [17]: Dose-dependent effect | Activity [18]: Dose-dependent effect | viability at 1 µM [19]: 87.9% | Activity [20]: 65.46% | Activity [21]: Dose-dependent effect | Activity [22]: 19.4% | Activity [23]: 83.8% | viability at 10 µM [24]: 40.4% | Activity [25]: 3.42% | Activity [26]: 9.73% | Activity [27]: Active
